From ChEMBL document CHEMBL5442175, “EUbOPEN Chemogenomics Library - PDSP Secondary Binding” (2024)
Structures can show the parent of a compound that is named as a salt.

Key:
[1] = target: T1, Alpha-2A adrenergic receptor (Homo sapiens, UniProt P08913); assay: (§1) PDSP Secondary Binding target: ADRA2A - Compounds are tested at 10 uM concentration, plate are incubated at room temperature in the dark for 90 minutes. Reaction are stopped by vacuum filtration onto 0.3% polyethyleneimine soaked filter mats using Filtermate harvester. Scintillation cocktail is then melted onto microwave-dried filters on a hot plate and the radio activity is counted in Microbia counter.
T1 sequence (P08913 whole entry): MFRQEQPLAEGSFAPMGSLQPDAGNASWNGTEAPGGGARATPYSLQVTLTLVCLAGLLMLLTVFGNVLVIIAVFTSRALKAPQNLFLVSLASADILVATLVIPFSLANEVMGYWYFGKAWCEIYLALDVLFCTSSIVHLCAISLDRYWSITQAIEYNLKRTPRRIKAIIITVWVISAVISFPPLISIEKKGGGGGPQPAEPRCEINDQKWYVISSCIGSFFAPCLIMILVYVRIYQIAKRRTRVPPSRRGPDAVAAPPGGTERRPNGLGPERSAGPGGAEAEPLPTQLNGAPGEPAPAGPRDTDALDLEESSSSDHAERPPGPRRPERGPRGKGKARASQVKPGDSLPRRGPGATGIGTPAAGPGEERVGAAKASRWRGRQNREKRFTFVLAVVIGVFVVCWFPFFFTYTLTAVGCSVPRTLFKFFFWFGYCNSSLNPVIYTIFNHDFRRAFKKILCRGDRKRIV

[2] = target: T2, Alpha-1D adrenergic receptor (Homo sapiens, UniProt P25100); assay: as §1, with “ADRA1D” for “ADRA2A”
T2 sequence (P25100 whole entry): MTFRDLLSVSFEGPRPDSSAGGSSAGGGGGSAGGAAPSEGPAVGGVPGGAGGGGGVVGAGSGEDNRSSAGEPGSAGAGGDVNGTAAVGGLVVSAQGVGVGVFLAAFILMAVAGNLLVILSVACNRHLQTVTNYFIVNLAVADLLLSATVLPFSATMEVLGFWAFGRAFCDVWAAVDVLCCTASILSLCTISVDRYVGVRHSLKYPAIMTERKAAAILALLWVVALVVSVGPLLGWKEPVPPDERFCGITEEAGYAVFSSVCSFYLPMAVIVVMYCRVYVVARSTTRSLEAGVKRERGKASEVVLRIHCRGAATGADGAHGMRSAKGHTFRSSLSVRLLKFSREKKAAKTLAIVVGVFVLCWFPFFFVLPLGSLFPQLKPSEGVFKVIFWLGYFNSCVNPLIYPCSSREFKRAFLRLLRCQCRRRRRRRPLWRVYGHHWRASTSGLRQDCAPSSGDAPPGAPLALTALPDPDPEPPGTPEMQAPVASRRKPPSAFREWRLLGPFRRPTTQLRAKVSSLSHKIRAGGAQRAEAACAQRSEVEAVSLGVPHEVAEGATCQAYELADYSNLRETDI

[3] = target: Sigma intracellular receptor 2 (Homo sapiens, UniProt Q5BJF2); assay: as §1, with “TMEM97” for “ADRA2A”
Sequence of Sigma intracellular receptor 2 (Q5BJF2 whole entry): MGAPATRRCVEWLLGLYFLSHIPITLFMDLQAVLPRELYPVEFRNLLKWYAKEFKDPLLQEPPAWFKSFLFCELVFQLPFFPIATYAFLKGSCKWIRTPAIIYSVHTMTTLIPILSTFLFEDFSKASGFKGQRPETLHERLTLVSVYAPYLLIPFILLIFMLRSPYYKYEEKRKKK

[4] = target: T3, 5-hydroxytryptamine receptor 2C (Homo sapiens, UniProt P28335); assay: as §1, with “HTR2C” for “ADRA2A”
T3 sequence (P28335 whole entry): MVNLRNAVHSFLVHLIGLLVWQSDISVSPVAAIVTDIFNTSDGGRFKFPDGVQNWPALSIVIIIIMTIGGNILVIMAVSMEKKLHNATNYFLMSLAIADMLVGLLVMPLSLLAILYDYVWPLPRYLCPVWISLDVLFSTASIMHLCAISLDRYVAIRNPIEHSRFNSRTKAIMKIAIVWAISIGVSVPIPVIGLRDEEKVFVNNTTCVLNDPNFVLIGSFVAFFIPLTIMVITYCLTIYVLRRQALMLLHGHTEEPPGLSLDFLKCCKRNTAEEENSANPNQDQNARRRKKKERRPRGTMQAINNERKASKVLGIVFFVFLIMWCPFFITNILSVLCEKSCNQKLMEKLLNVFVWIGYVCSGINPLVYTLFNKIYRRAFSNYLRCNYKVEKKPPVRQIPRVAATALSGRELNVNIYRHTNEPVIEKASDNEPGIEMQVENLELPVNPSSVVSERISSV

[5] = target: 5-hydroxytryptamine receptor 1D (Homo sapiens, UniProt P28221); assay: as §1, with “HTR1D” for “ADRA2A”
D(3) dopamine receptor = D(3) dopamine receptor (Homo sapiens, UniProt P35462); assay: as §1, with “DRD3” for “ADRA2A”
Sequence of D(3) dopamine receptor (P35462 whole entry): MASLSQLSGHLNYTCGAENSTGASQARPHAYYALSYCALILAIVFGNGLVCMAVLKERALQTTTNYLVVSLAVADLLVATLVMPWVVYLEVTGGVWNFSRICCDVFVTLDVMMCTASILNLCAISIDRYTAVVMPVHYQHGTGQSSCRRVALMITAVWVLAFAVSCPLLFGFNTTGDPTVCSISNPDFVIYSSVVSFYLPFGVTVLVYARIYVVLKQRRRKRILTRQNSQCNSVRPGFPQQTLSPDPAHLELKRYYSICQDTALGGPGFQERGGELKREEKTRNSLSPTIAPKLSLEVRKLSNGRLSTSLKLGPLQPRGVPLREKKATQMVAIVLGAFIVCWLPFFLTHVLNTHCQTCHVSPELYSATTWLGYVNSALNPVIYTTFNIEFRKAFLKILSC

[6] = target: T4, Alpha-2B adrenergic receptor (Homo sapiens, UniProt P18089); assay: as §1, with “ADRA2B” for “ADRA2A”
T4 sequence (P18089 whole entry): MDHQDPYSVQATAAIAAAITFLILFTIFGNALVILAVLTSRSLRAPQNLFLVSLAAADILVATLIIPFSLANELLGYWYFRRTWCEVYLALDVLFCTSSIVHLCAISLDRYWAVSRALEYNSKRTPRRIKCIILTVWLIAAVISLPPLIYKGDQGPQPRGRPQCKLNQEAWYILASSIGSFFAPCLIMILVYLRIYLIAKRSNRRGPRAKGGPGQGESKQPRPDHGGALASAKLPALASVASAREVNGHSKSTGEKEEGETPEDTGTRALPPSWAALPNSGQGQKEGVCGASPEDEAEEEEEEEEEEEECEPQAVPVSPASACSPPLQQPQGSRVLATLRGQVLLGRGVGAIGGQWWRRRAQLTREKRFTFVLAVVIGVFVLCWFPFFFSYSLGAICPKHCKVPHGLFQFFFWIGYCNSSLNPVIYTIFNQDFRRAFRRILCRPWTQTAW

[7] = target: T5, Alpha-1B adrenergic receptor (Homo sapiens, UniProt P35368); assay: as §1, with “ADRA1B” for “ADRA2A”
T5 sequence (P35368 whole entry): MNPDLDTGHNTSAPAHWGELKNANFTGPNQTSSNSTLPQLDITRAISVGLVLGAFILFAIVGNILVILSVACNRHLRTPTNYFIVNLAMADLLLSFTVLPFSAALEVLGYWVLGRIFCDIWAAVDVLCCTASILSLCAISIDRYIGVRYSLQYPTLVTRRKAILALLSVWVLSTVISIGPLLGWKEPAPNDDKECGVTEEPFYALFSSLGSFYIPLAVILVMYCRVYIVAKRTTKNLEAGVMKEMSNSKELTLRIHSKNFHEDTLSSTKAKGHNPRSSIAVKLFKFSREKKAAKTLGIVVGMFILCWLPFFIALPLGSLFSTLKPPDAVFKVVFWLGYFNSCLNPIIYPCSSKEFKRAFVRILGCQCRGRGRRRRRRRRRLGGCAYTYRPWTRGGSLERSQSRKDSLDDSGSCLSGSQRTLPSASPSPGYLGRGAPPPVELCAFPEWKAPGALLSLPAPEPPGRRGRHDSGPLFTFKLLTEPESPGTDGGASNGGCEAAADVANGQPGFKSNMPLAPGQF

[8] = target: 5-hydroxytryptamine receptor 7 (Homo sapiens, UniProt P34969); assay: as §1, with “HTR7” for “ADRA2A”
Sequence of 5-hydroxytryptamine receptor 7 (P34969 whole entry): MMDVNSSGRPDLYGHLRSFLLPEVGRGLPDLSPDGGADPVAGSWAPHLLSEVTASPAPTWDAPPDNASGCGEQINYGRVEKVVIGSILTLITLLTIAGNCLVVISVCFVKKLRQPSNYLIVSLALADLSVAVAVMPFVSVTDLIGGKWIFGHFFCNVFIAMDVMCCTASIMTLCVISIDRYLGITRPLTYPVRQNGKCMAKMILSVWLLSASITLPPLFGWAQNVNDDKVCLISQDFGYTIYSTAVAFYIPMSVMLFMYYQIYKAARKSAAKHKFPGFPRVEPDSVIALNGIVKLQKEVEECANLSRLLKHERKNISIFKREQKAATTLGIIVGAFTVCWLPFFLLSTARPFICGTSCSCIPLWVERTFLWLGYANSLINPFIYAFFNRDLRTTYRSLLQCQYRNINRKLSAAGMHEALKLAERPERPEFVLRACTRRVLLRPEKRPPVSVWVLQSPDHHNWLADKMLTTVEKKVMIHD

[9] = target: 5-hydroxytryptamine receptor 6 (Homo sapiens, UniProt P50406); assay: as §1, with “HTR6” for “ADRA2A”
Sequence of 5-hydroxytryptamine receptor 6 (P50406 whole entry): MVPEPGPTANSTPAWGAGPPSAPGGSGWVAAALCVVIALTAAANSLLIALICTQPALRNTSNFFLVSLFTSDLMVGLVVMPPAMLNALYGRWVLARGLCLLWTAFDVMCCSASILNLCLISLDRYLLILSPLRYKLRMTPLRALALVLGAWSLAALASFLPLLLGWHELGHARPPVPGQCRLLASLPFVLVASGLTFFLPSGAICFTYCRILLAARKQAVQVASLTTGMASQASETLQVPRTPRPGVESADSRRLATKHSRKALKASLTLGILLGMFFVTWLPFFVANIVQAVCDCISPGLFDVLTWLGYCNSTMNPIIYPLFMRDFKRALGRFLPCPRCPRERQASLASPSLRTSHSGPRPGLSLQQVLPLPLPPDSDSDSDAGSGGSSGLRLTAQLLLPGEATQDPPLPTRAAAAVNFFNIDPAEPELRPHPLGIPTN

[10] = target: Sigma non-opioid intracellular receptor 1 (Homo sapiens, UniProt Q99720); assay: as §1, with “SIGMAR1” for “ADRA2A”
Sequence of Sigma non-opioid intracellular receptor 1 (Q99720 whole entry): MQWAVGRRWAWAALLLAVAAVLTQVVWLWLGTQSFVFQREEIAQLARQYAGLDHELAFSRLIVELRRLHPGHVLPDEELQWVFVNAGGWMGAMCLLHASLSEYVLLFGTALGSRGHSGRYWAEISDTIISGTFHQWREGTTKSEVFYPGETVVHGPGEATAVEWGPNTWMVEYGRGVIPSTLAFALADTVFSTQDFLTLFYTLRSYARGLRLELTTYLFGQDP

[11] = target: Sodium-dependent noradrenaline transporter (Homo sapiens, UniProt P23975); assay: as §1, with “SLC6A2” for “ADRA2A”
Sequence of Sodium-dependent noradrenaline transporter (P23975 whole entry): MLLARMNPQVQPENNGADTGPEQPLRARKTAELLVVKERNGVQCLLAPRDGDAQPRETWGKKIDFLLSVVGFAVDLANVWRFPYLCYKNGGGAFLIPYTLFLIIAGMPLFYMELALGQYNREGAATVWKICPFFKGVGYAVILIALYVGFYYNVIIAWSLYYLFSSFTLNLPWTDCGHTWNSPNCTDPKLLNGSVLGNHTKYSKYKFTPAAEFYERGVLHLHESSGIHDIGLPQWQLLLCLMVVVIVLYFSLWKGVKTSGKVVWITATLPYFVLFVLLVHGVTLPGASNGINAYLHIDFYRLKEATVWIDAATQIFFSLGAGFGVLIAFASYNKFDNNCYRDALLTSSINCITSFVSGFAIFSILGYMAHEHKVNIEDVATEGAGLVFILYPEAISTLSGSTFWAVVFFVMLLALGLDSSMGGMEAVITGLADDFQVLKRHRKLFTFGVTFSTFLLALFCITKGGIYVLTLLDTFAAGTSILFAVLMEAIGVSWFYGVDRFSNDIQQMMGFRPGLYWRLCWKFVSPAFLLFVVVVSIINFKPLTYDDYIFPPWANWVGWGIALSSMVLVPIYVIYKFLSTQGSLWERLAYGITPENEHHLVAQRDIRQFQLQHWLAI

[12] = target: Sodium-dependent serotonin transporter (Homo sapiens, UniProt P31645); assay: as §1, with “SLC6A4” for “ADRA2A”
Sequence of Sodium-dependent serotonin transporter (P31645 whole entry): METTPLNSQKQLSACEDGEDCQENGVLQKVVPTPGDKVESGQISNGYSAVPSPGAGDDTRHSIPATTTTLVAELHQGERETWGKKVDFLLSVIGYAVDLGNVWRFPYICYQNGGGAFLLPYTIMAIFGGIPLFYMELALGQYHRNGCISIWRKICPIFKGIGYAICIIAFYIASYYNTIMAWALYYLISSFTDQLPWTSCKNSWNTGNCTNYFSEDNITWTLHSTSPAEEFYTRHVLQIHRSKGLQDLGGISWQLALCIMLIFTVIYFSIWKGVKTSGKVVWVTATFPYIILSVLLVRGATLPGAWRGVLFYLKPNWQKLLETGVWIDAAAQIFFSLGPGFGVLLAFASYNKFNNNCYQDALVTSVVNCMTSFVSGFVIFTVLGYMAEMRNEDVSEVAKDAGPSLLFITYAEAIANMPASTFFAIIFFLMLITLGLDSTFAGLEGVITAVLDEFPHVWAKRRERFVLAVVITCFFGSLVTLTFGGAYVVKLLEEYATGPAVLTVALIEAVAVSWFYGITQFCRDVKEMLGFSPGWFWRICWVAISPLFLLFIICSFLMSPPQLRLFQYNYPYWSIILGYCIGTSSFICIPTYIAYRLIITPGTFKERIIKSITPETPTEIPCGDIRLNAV

D(4) dopamine receptor = target: T6, D(4) dopamine receptor (Homo sapiens, UniProt P21917); assay: as §1, with “DRD4” for “ADRA2A”
T6 sequence (P21917 whole entry): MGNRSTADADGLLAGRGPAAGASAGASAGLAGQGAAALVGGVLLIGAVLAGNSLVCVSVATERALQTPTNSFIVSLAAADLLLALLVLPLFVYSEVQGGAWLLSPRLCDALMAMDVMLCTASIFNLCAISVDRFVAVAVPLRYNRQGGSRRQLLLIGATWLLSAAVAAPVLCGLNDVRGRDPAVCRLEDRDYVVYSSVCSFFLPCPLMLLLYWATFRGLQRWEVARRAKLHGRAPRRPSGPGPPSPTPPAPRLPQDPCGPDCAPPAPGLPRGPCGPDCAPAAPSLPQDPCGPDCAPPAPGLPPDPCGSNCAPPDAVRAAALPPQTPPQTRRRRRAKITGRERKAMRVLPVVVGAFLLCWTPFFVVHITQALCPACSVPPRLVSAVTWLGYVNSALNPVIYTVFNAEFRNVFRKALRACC

Mu-type opioid receptor = Mu-type opioid receptor (Homo sapiens, UniProt P35372); assay: as §1, with “OPRM1” for “ADRA2A”
Histamine H1 receptor = Histamine H1 receptor (Homo sapiens, UniProt P35367); assay: as §1, with “HRH1” for “ADRA2A”
Sequence of Histamine H1 receptor (P35367 whole entry): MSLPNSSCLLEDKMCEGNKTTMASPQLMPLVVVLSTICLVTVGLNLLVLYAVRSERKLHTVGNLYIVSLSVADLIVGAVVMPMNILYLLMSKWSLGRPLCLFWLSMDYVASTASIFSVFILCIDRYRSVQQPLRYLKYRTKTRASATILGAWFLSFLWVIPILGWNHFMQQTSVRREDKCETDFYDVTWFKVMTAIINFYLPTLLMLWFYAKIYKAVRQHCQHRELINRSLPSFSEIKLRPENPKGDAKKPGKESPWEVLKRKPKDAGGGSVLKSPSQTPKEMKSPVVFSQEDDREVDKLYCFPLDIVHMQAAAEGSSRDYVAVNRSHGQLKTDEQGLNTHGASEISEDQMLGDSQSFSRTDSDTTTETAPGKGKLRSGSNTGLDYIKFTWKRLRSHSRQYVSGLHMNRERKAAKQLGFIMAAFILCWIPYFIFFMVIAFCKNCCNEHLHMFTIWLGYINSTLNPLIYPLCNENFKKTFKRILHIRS

[13] = target: 5-hydroxytryptamine receptor 5A (Homo sapiens, UniProt P47898); assay: as §1, with “HTR5A” for “ADRA2A”
Sequence of 5-hydroxytryptamine receptor 5A (P47898 whole entry): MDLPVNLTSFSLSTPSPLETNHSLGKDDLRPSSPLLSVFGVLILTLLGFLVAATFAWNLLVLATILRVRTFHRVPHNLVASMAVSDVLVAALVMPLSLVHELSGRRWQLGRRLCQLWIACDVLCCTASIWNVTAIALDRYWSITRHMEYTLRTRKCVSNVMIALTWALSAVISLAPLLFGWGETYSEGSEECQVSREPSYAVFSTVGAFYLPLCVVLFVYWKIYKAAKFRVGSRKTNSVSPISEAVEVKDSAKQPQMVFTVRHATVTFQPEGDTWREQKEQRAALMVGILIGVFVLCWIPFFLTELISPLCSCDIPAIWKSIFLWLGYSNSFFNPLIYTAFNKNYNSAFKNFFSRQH

Translocator protein = Translocator protein (Homo sapiens, UniProt P30536); assay: as §1, with “TSPO” for “ADRA2A”
Sequence of Translocator protein (P30536 whole entry): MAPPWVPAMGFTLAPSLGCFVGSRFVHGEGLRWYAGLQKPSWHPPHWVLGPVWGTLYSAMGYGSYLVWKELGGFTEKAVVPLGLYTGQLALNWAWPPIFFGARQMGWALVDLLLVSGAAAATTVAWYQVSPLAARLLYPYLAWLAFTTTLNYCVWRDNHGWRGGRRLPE

[14] = target: Kappa-type opioid receptor (Homo sapiens, UniProt P41145); assay: as §1, with “OPRK1” for “ADRA2A”
Sequence of Kappa-type opioid receptor (P41145 whole entry): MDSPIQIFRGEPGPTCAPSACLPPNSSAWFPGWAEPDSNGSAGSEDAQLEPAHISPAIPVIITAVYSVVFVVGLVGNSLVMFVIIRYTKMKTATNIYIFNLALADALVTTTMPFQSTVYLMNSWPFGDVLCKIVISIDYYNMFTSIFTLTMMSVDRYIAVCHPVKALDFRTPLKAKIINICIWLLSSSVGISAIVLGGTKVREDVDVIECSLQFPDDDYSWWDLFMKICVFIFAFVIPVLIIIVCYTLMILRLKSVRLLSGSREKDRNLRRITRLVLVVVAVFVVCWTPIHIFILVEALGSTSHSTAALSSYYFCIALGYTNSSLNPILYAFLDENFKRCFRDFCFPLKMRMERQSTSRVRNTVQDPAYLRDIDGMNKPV

[15] = target: 5-hydroxytryptamine receptor 1B (Homo sapiens, UniProt P28222); assay: as §1, with “HTR1B” for “ADRA2A”
Sequence of 5-hydroxytryptamine receptor 1B (P28222 whole entry): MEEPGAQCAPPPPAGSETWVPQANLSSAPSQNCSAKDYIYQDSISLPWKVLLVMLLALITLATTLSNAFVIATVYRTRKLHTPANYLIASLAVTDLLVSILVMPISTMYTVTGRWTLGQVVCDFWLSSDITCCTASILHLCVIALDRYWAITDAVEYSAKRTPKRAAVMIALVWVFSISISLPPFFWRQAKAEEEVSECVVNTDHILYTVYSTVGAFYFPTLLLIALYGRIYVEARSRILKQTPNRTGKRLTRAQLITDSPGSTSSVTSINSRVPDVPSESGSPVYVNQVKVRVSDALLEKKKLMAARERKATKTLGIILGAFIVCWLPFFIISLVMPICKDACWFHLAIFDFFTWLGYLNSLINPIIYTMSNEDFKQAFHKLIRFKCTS

Row | Ki (D(3) dopamine receptor) [µM] | Ki [11] [µM] | Ki [12] [µM] | SMILES | Ki [2] [µM] | Ki [3] [µM] | other results
1 |  |  |  | Brc1c(NC2=NCCN2)ccc2nccnc12 | 2.11 | 1.53 | Ki [8]: 1.11 µM; Ki [7]: 4.2 µM
2 |  |  |  | CC(C)NCC(O)COc1cccc2ccccc12 (stereo unspecified) [PROPRANOLOL HYDROCHLORIDE] |  | 0.353 | Ki [9]: 0.542 µM; Ki [10]: 0.0954 µM
3 |  |  |  | Clc1cccc(Cl)c1N=C1NCCN1 [CLONIDINE HYDROCHLORIDE] | 1.98 | 2.78 | Ki [8]: 0.879 µM; Ki [4]: 6.95 µM; Ki [7]: 2.63 µM
4 | 2.58 | 6.91 | 7.77 | CCCCCNC(=O)NS(=O)(=O)c1cc([N+](=O)[O-])ccc1NC1CCCCC1 |  |  | 
5 | 0.559 |  |  | COc1ccc(S(=O)(=O)c2cc(OC)ccc2S(=O)(=O)c2ccc([C@H](C)NS(C)(=O)=O)cc2)cc1 |  |  | Ki (D(4) dopamine receptor): 1.16 µM; Ki [9]: 0.28 µM
6 |  |  |  | CCCn1c(=O)c2[nH]c(-c3cnn(Cc4cccc(C(F)(F)F)c4)c3)nc2n(CC)c1=O [GS 6201] | > 10 |  | 
7 |  |  |  | Cc1ccccc1C(=O)Nc1ccc(C(=O)N2CCCC(O)c3cc(Cl)ccc32)c(C)c1 (stereo unspecified) [TOLVAPTAN] |  | 1.03 | Ki (Mu-type opioid receptor): 0.41 µM; Ki (Histamine H1 receptor): 6.69 µM; Ki [4]: 4.86 µM
8 |  | > 10 | 2.43 | O=C(O)c1n[nH]c2c1C[C@H]1C[C@@H]21 |  |  | Ki [13]: > 10 µM
9 | 1 | 4.83 | > 10 | CCCNS(=O)(=O)Nc1ncnc(OCCOc2ncc(Br)cn2)c1-c1ccc(Br)cc1 |  |  | Ki (Translocator protein): 2.12 µM
10 | 2.04 | 7.55 | 7.61 | N[C@H](C(=O)O)c1ccc(C(=O)O)c(C(=O)O)c1 |  |  | 
11 |  |  |  | N#Cc1c(N)nc(SCC(N)=O)c(C#N)c1-c1ccc(OCC2CC2)cc1 |  |  | Ki [14]: 0.407 µM; Ki [10]: 1 µM; Ki [15]: 6.67 µM
12 |  | > 10 |  | C[C@H](CO)Nc1nc(SCc2cccc(Cl)c2F)nc2[nH]c(=O)sc12 |  |  | Ki [15]: 8.41 µM

Row | SMILES | Ki (D(3) dopamine receptor) [µM] | Ki [11] [µM] | Ki [12] [µM] | Ki [2] [µM] | Ki [3] [µM] | other results
13 | CCCCCCCCCCCCCCCCOC[C@H](COP(=O)([O-])OCC[N+](C)(C)C)OC(C)=O | 1.76 |  |  | 2.05 | 1.82 | Ki [1]: > 10 µM; Ki [4]: 3.08 µM; Ki [5]: 8.52 µM; Ki [6]: > 10 µM; Ki [7]: 4.49 µM
